We go through one molecule from patent US5235045A, “Non-azo naphthalimide dyes” (priority 1992, dated 1993).

SMILES strings stand for the structures.

Test [1] is described as follows: Tissue bonding of swine dura mater with DiEd6Br and light. From the text: Bonding together of the overlapping surfaces of two strips of swine dura mater and of two thin slices of beef muscle with application of DiEd6Br in Cremophor EL as a carrier and irradiation with 420 # 5 nm light filtered from a xenon arc lamp were studied.
Strips approximately 3×0.5 cm in dimension were cut from freshly harvested swine cranial dura mater, washed with 70% ethanol/water and blotted to dryness with standard chemical filter paper. External faces of each member of two pairs of strips were coated with a stock solution of Cremophor EL saturated at room temperature with DiEd6Br (approximately 2.5 millimolar), overlapped 1 cm with long axes parallel, and clamped between two Pyrex glass slides with edges of the slide-tissue-slide sandwich sealed with Parafilm. One sample was irradiated with 420 # 5 nm light of 25 mW/cm^2 irradiance for […]. at room temperature to give a total light fluence of approximately 1800 J/cm^2. The companion sample was wrapped in aluminum foil for light shielding and placed alongside the irradiated sample for the duration of the experiment.
Following their respective irradiation or being held in the dark in similar temperature ambience, one end of a strip of each sample was clamped and from the other a Styrofoam container was hung by a clamp and fine suspension wires (weight of clamp plus container plus wires=33.3 gm). Weights (10 gm each) were added gently in a sequential fashion to give a total weight of 296.3 gm upon which the strip is separated at their interface within the overlapped region of the irradiated sample. Strips of the un-irradiated sample separated immediately at their interface under the 33.3 gm loading of the "weighing" container. […] Elongation was approximately 50% at shearing of the interface.

For test [2], the system named is Herpes simplex virus type 1. Briefly: Effect of DiEd6Br and light on HSV-1 containing 15% fetal calf serum (plaque assay). Format: cell-based, MacIntyre strain.

Consider `CCCCCCN1C(=O)c2cccc3c(NCCNC(=O)CCCCC(=O)NCCNc4c(Br)cc5c6c(cccc46)C(=O)N(CCCCCC)C5=O)c(Br)cc(c23)C1=O` [Compound XLIV], for which the deformation after separation entry in test [1] (irradiated) is given as “no plastic deformation”. The “elongation at shearing of the interface” value in test [1] (irradiated) is given as “approximately 50%”. Further, the “total weight at separation of strips” value in test [1] (irradiated, approximately 1800 J/cm^2) is given as 296.3 gm. Also, the “loading at which strips separated immediately” value in test [1] (un-irradiated) is on record as at most 33.3 gm. In addition, the PFU/ml in test [2] (1.25 μM, 15% fetal calf serum, 20 J/cm2, 420 nm) is on record as 0 PFU/ml; in test [2] (2.5 μM, 15% fetal calf serum, 20 J/cm2, 420 nm) it was 0 PFU/ml; in test [2] (5 μM, 15% fetal calf serum, 20 J/cm2, 420 nm) it was 0 PFU/ml; in test [2] (10 μM, 15% fetal calf serum, 20 J/cm2, 420 nm) it was 0 PFU/ml; in test [2] (.078 μM, 15% fetal calf serum, 20 J/cm2, 420 nm), 4.2 × 10^4 PFU/ml; in test [2] (.156 μM, 15% fetal calf serum, 20 J/cm2, 420 nm) it was 4.5 × 10^3 PFU/ml. Further, the PFU/ml is 8.5 × 10^1 PFU/ml in test [2] (.312 μM, 15% fetal calf serum, 20 J/cm2, 420 nm) and 6.0 × 10^1 PFU/ml in test [2] (.625 μM, 15% fetal calf serum, 20 J/cm2, 420 nm). The log reduction at 1.25 µM in test [2] (Human alphaherpesvirus 1, light or radiation study, 1.25 μM, 15% fetal calf serum, 20 J/cm2, 420 nm, read-out: Log10 Reduction) was at least 5. In addition, the log reduction at 2.5 µM in test [2] (Human alphaherpesvirus 1, light or radiation study, 2.5 μM, 15% fetal calf serum, 20 J/cm2, 420 nm, read-out: Log10 Reduction) is at least 5. In test [2] (Human alphaherpesvirus 1, light or radiation study, 5 μM, 15% fetal calf serum, 20 J/cm2, 420 nm, read-out: Log10 Reduction), the log reduction at 5 µM is at least 5. Also, in test [2] (Human alphaherpesvirus 1, light or radiation study, 10 μM, 15% fetal calf serum, 20 J/cm2, 420 nm, read-out: Log10 Reduction), the log reduction at 10 µM was at least 5. Further, the log reduction at 0.078 µM in test [2] (Human alphaherpesvirus 1, light or radiation study, .078 μM, 15% fetal calf serum, 20 J/cm2, 420 nm, read-out: Log10 Reduction) stood at 0.38. Moreover, the log reduction at 0.156 µM in test [2] (Human alphaherpesvirus 1, light or radiation study, .156 μM, 15% fetal calf serum, 20 J/cm2, 420 nm, read-out: Log10 Reduction) was found to be 1.35. In test [2] (Human alphaherpesvirus 1, light or radiation study, .312 μM, 15% fetal calf serum, 20 J/cm2, 420 nm, read-out: Log10 Reduction), the log reduction at 0.312 µM is 3.1. Besides, the log reduction at 0.625 µM in test [2] (Human alphaherpesvirus 1, light or radiation study, .625 μM, 15% fetal calf serum, 20 J/cm2, 420 nm, read-out: Log10 Reduction) turned out to be 4. Further, the “kill of HSV-1” value in test [2] (as low as 0.156 mM, 420 nm, 20 J/cm^2) is above 99.99%.
